Test results from publication PMC9021288 (Nature Communications, 2022).
“And” between values parts separate entries of the source, which are not always exact repeats. Equal entries are not always repeated.

Assays:
[1] = system: P. falciparum NF54 female gametocytes; test: Dual gamete formation assay, female; assay type: cell-based, Plasmodium falciparum; settings: read-out: IC50 female gametocyte activation
Experimental: After a 48-h incubation, gamete formation was stimulated by a drop in temperature (from 37 °C to 26 °C), and the addition of xanthurenic acid (2.5 µM). At 20 min after induction, exflagellation was recorded by automated time-lapse microscopy. After data collection, the plate was returned to a 26 °C incubator and incubated for 24 h. Female gamete formation was assessed by live staining with a Cy3-labelled anti-Pfs25 monoclonal antibody (1:2222) and recorded by automated microscopy.

[2] = Pharmacokinetics in dogs (cassette dosing); assay type: in vivo, Beagle dogs
Experimental: (§1) Subsequently, samples were spun down at 1640 g for 5-10 min at 4 °C within 30 min after collection and plasma was collected. […] Urine was collected following an intravenous dose in both rat and dog, allowing renal clearance to be estimated. Human renal clearance was estimated from dog renal clearance as previously described[40] and other human PK parameters were predicted using allometric scaling and/or in vitro clearance data. PK parameters were calculated by naïve pooled approach using WinNonLin software (Phoenix, version 6.3).

[3] = Metabolite identification in dog plasma and urine; settings: in vivo
Renal excretion in dogs = assay type: in vivo, dog; settings: for Concentration (ng/ml) in urine: dog urine, individual dogs 1-3
Experimental: as §1, with “A blood sample from the saphenous vein was collected into heparinized capillary tubes at multiple intervals between 0.25 and 24 h after dosing. Subsequently,” for “Subsequently,”

[4] = Human PK prediction (allometry, in vitro clearance, GastroPlus)
Experimental: as §1, with “A blood sample from the saphenous vein was collected into heparinized capillary tubes at multiple intervals between 0.25 and 24 h after dosing. Subsequently,” for “Subsequently,”

HepG2 cells = test: HepG2 viability (resazurin); settings: for HepG2 viability assay, normalised to controls / HepG2 viability assay, raw signal: replicate 1, replicate 2
Experimental: Safety studies were performed by commercial services using their standard protocols. […] Genotoxicity was investigated using the Ames test (Bacterial Reverse Mutation Assay) (Covance Laboratories Ltd, North Yorkshire, England). In vitro mammalian cell micronucleus screening assay was studied in human peripheral blood lymphocytes (BioReliance Corporation, Rockville, USA). Cardiotoxicity was determined against the hERG channel in an automated patch clamp assay using the Qpatch or against the hNaV 1.5, hKV 1.5 and hCaV 1.2 using a manual patch-clamp technique (Metrion Biosciences, Cambridge, UK). Cytotoxicity in human and rat primary hepatocytes was assessed using the CellTiter-Blue assay performed by commercial services (KaLy-Cell). The viability of HepG2 cells was monitored through the addition of 1 mM resazurin. Following 6 h incubation, the relative amount of reduced resazurin was detected in a fluorimeter and compared to the assay controls (vehicle: 0.1% DMSO and positive control: 10 µM puromycin).

3-day MTD2 rat study = assay type: in vivo, Wistar Han rats; settings: 300, 600, 1000 mg/kg/day, three days
Description: See the summary of the study design in Supplementary Table 31. Nine-week-old Wistar (Crl:WI (Han)) rats were obtained from Charles River Laboratories (Domaine des Oncins, Saint-Germain-Nuelles, France). […] Animals were examined daily for any altered clinical signs, body weights, and food consumption. Blood samples were taken at different timepoints after the test item administration, and toxicokinetic exposure assessed under the defined experimental conditions and analyzed using Phoenix (version 6.4 and 1.4) (Supplementary Table 32). Measurements included hematology and clinical chemistry measurements. Animals were euthanized and necropsied at the end of the dosing period. At necropsy, major organ systems and tissues were collected and weighed and then examined for gross lesions as well as for microscopic changes.

## C[C@@H](CNC(=O)[C@H](O)C(C)(C)CO)NC(=O)c1cc(F)c(F)cc1F [MMV693183]
[1]
  IC50: 0.012 µM
[2]; Dog
  Observed hepatic/ predicted hepatic: 0.95
  Observed total-renal = observed hepatic: 0.63 L/h/kg
  Predicted hepatic plasma clearance: 0.666 L/h/kg
[2]; Dog, Time (hrs) 0.083333
  Norm. conc i.v.: 1180 ng/mL and 892 ng/mL and 1160 ng/mL
[2]; Dog, Time (hrs) 0.25
  Norm. conc i.v.: 732 ng/mL and 660 ng/mL and 906 ng/mL
  Norm. conc p.o.: 815 ng/mL and 580 ng/mL and 439 ng/mL
[2]; Dog, Time (hrs) 0.5
  Norm. conc i.v.: 414 ng/mL and 439 ng/mL and 345 ng/mL
  Norm. conc p.o.: 485 ng/mL and 365 ng/mL and 280.5 ng/mL
[2]; Dog, Time (hrs) 1
  Norm. conc i.v.: 166 ng/mL and 228 ng/mL and 178 ng/mL
  Norm. conc p.o.: 132.5 ng/mL and 118.5 ng/mL and 171.5 ng/mL
[2]; Dog, Time (hrs) 2
  Norm. conc i.v.: 52.9 ng/mL and 68.5 ng/mL and 55.6 ng/mL
  Norm. conc p.o.: 29.9 ng/mL and 28.05 ng/mL and 47.05 ng/mL
[2]; Dog, Time (hrs) 4
  Norm. conc i.v.: 28.7 ng/mL and 29.7 ng/mL and 29.8 ng/mL
  Norm. conc p.o.: 15.6 ng/mL and 14.15 ng/mL and 21.05 ng/mL
[2]; Dog, Time (hrs) 8
  Norm. conc i.v.: 14.6 ng/mL and 21.2 ng/mL and 17.8 ng/mL
[2]; Dog, Time (hrs) 24
  Norm. conc i.v.: 2 ng/mL and 3.19 ng/mL and 2.05 ng/mL
  Norm. conc p.o.: 1 ng/mL and 1.115 ng/mL
[2]; i.v. 1 mg/kg, mean
  AUC0-∞: 1.451 µg·h/mL
  AUClast: 1.423 µg·h/mL
  Cmax: 1.077 µg/mL
  Vss_obs: 1.79 L/kg
[2]; i.v. 1 mg/kg, mean, 1 mg/kg
  CLtotal: 0.69 L/h/kg and 0.6912 L/h/kg
  T1/2: 4.2 h and 4.23 h
[2]; p.o. 2 mg/kg, mean
  AUC0-∞: 1.902 µg·h/mL
  AUClast: 1.844 µg·h/mL
  Cmax: 1.286 µg/mL
  T1/2: 2.93 h
[2]; p.o. 2 mg/kg, mean, 2 mg/kg
  F: 64% and 63.7%
  Tmax: 0.333 h
[3]
  detected in Plasma: Yes
  detected in Urine: Yes
Renal excretion in dogs; Dog
  Observed renal plasma clearance: 0.06 L/h/kg
Renal excretion in dogs; Mean
  Dose in urine: 0.0332
  Total in urine: 384 µg
Renal excretion in dogs; interval 0 to 4 h
  Concentration (ng/ml) in urine: 2790 ng/mL and 4550 ng/mL and 7660 ng/mL
Renal excretion in dogs; interval 8 to 24 h
  Concentration (ng/ml) in urine: 6890 ng/mL and 3700 ng/mL
Renal excretion in dogs; dogs, i.v. 1 mg/kg, dog with 170 ml urine
  drug eliminated in urine: 8.9%
Renal excretion in dogs; i.v. 1 mg/kg, total per animal 1-3, 1 mg/kg
  Dose in urine: 0.002 and 0.089 and 0.009
Renal excretion in dogs; total 0-24 h per animal 1-3
  Total in urine: 22.32 µg and 1030.9 µg and 98.8 µg
[4]
  biopharmaceutical classification system class: class I
[4]; allometry with MLP correction
  estimated human total clearance: 0.108 L/h/kg
[4]; human predicted
  CL, total: 0.0666 L/h/kg
  V1: 0.843 L/kg
  V2: 1.97 L/kg
  Vss: 2.81 L/kg
  half-life: 32.4 h
[4]; human predicted from dog renal clearance
  CL, renal: 0.036 L/h/kg
[4]; human predicted from in vitro hepatocyte clearance
  CL, hepatic: 0.0306 L/h/kg
[4]; simple allometry
  allometric clearance exponent: 0.967
HepG2 cells; log concentration (M) -5
  HepG2 viability assay, normalised to controls: 96% and 104%
  HepG2 viability assay, raw signal: 10734 and 11536
HepG2 cells; log concentration (M) -5.5
  HepG2 viability assay, normalised to controls: 103% and 105%
  HepG2 viability assay, raw signal: 11483 and 11722
HepG2 cells; log concentration (M) -6
  HepG2 viability assay, normalised to controls: 105% and 100%
  HepG2 viability assay, raw signal: 11668 and 11173
HepG2 cells; log concentration (M) -6.5
  HepG2 viability assay, normalised to controls: 103% and 102%
  HepG2 viability assay, raw signal: 11442 and 11328
HepG2 cells; log concentration (M) -7
  HepG2 viability assay, normalised to controls: 100% and 101%
  HepG2 viability assay, raw signal: 11114 and 11207
HepG2 cells; log concentration (M) -7.5
  HepG2 viability assay, normalised to controls: 104% and 107%
  HepG2 viability assay, raw signal: 11575 and 11909
HepG2 cells; log concentration (M) -8
  HepG2 viability assay, normalised to controls: 105% and 102%
  HepG2 viability assay, raw signal: 11700 and 11315
HepG2 cells; log concentration (M) -8.5
  HepG2 viability assay, normalised to controls: 105% and 101%
  HepG2 viability assay, raw signal: 11684 and 11300
HepG2 cells; log concentration (M) -9
  HepG2 viability assay, normalised to controls: 109%
  HepG2 viability assay, raw signal: 12138 and 12106
HepG2 cells; read-out: IC50 viability, HepG2
  IC50: > 10 µM
3-day MTD2 rat study
  toxicity: no relevant toxicity was observed
